Results from the NIST ThermoML archive (doi:10.1016/j.tca.2011.11.025).
± gives the expanded uncertainty stated by the source.

Assay: excess molar enthalpy (molar enthalpy of mixing); xn = mol fraction of the nth substance listed
Conditions: 308.15 K, 101 kPa, Liquid, 2-drop calorimeter

Cc1ccc(C)cc1 [1,4-dimethylbenzene] + C1COCCO1
excess molar enthalpy (x2 = 0.0757): 0.0122 ± 0.000359 kcal/mol | excess molar enthalpy (x2 = 0.1355): 0.0244 ± 0.000598 kcal/mol | excess molar enthalpy (x2 = 0.1984): 0.0362 ± 0.000837 kcal/mol | excess molar enthalpy (x2 = 0.2656): 0.0481 ± 0.0011 kcal/mol | excess molar enthalpy (x2 = 0.3025): 0.0538 ± 0.00122 kcal/mol | excess molar enthalpy (x2 = 0.3648): 0.062 ± 0.00139 kcal/mol | excess molar enthalpy (x2 = 0.4154): 0.0674 ± 0.00151 kcal/mol | excess molar enthalpy (x2 = 0.4759): 0.0705 ± 0.00155 kcal/mol | excess molar enthalpy (x2 = 0.5524): 0.0717 ± 0.00158 kcal/mol | excess molar enthalpy (x2 = 0.6251): 0.0687 ± 0.00153 kcal/mol | excess molar enthalpy (x2 = 0.6956): 0.0625 ± 0.00139 kcal/mol | excess molar enthalpy (x2 = 0.7415): 0.0563 ± 0.00127 kcal/mol | excess molar enthalpy (x2 = 0.7867): 0.0487 ± 0.0011 kcal/mol | excess molar enthalpy (x2 = 0.8521): 0.0355 ± 0.000837 kcal/mol | excess molar enthalpy (x2 = 0.8953): 0.026 ± 0.000621 kcal/mol | excess molar enthalpy (x2 = 0.9326): 0.0168 ± 0.000454 kcal/mol

Cc1cccc(C)c1 [1,3-dimethylbenzene] + C1COCCO1
excess molar enthalpy (x2 = 0.0638): 0.0149 ± 0.000406 kcal/mol | excess molar enthalpy (x2 = 0.1239): 0.0289 ± 0.000693 kcal/mol | excess molar enthalpy (x2 = 0.1845): 0.0429 ± 0.00098 kcal/mol | excess molar enthalpy (x2 = 0.223): 0.0496 ± 0.00112 kcal/mol | excess molar enthalpy (x2 = 0.2742): 0.0593 ± 0.00131 kcal/mol | excess molar enthalpy (x2 = 0.3357): 0.0675 ± 0.00151 kcal/mol | excess molar enthalpy (x2 = 0.4212): 0.0759 ± 0.00167 kcal/mol | excess molar enthalpy (x2 = 0.4781): 0.0796 ± 0.00174 kcal/mol | excess molar enthalpy (x2 = 0.5516): 0.0797 ± 0.00174 kcal/mol | excess molar enthalpy (x2 = 0.6212): 0.0748 ± 0.00165 kcal/mol | excess molar enthalpy (x2 = 0.6836): 0.0687 ± 0.00153 kcal/mol | excess molar enthalpy (x2 = 0.7583): 0.0576 ± 0.00129 kcal/mol | excess molar enthalpy (x2 = 0.7797): 0.0534 ± 0.0012 kcal/mol | excess molar enthalpy (x2 = 0.8183): 0.0467 ± 0.00105 kcal/mol | excess molar enthalpy (x2 = 0.8884): 0.0298 ± 0.000717 kcal/mol | excess molar enthalpy (x2 = 0.9481): 0.0144 ± 0.000406 kcal/mol
